Measurements published in ChEMBL document CHEMBL1909514, “Imidazo[2,1-b]thiazole guanylhydrazones as RSK2 inhibitors” (Eur J Med Chem, 2011).

Legend:
[1] = molecular target: ALK tyrosine kinase receptor (Homo sapiens, UniProt Q9UM73)
[2] = system: HL-60(TB); assay: Growth inhibition of human HL-60(TB) cells after 48 hrs by SRB assay; format: functional; details: HL-60, 48 h
[3] = system: MDA-MB-435; assay: Growth inhibition of human MDA-MB-435 cells after 48 hrs by SRB assay; format: functional; details: MDA-MB-435, 48 h
[4] = system: A498; assay: Growth inhibition of human A498 cells after 48 hrs by SRB assay; format: functional; details: A498, 48 h
[5] = system: SK-OV-3; assay: Growth inhibition of human SKOV3 cells after 48 hrs by SRB assay; format: functional; details: SK-OV-3, 48 h
[6] = system: KM12; assay: Growth inhibition of human KM12 cells after 48 hrs by SRB assay; format: functional; details: KM12, 48 h
[7] = system: HOP-92; assay: Growth inhibition of human HOP92 cells after 48 hrs by SRB assay; format: functional; details: HOP-92, 48 h
[8] = read-out: pLC50 (the source's name) (converted)

Sequence of ALK tyrosine kinase receptor (Q9UM73 whole entry): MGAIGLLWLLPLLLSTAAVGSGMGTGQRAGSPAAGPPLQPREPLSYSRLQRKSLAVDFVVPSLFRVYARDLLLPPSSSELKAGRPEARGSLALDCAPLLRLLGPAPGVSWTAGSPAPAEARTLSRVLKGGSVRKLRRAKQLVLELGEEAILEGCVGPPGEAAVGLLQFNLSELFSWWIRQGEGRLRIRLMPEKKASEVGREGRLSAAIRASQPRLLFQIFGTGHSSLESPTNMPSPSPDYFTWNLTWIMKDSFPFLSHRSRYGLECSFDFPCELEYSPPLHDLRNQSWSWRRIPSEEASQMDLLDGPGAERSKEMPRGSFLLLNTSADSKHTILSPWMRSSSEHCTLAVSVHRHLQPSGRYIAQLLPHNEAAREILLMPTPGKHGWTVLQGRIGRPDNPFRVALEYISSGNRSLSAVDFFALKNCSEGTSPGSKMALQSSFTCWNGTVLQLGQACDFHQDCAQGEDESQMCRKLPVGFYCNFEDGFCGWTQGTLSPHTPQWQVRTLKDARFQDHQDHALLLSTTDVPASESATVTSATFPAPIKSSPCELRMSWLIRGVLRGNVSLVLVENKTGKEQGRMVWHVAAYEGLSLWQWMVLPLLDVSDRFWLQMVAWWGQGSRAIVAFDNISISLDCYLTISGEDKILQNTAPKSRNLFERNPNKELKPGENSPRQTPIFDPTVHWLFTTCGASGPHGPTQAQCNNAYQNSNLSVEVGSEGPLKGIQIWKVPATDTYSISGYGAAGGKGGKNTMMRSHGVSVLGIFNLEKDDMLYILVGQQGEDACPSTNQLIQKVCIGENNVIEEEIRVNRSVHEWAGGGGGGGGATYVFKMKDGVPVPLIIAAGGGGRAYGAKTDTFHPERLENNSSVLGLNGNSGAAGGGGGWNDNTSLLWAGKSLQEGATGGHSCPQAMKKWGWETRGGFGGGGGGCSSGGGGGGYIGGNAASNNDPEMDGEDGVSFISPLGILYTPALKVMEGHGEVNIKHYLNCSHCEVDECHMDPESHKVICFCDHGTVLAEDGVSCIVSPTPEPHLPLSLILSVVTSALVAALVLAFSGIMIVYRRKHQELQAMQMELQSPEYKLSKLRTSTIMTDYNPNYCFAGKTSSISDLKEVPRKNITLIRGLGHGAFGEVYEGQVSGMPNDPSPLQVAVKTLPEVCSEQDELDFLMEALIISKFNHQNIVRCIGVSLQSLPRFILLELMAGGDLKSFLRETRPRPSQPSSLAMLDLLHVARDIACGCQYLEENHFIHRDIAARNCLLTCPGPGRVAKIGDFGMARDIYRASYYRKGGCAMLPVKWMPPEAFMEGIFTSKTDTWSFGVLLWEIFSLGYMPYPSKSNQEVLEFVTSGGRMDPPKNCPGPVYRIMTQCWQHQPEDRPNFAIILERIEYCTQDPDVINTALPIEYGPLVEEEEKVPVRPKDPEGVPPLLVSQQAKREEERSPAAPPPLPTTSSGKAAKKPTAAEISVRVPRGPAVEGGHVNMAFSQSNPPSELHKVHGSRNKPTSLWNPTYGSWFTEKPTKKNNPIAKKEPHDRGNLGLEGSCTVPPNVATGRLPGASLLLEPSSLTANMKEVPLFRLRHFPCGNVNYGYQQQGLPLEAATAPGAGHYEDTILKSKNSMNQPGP

With `N=C(N)N/N=C\c1c(-c2ccc([N+](=O)[O-])cc2)nc2sc(Br)cn12` the IC50 [1] was greater than 20000 nM, the GI50 [2] was 219 nM and the GI50 [3] was 251 nM. For the same compound, the CC50 [3, 8] was 5370 nM, the TGI ([3]; read-out: pTGI (converted)) was 7410 nM and the GI50 [4] was 1580 nM. The CC50 [4, 8] was 6030 nM, the TGI ([4]; read-out: pTGI (converted)) was 3090 nM and the GI50 [5] was 148 nM. It also gave a CC50 [5, 8] of 5620 nM, a TGI ([5]; read-out: pTGI (converted)) of 4470 nM and a GI50 [6] of 200 nM. It also gave a CC50 [6, 8] of 759 nM, a TGI ([6]; read-out: pTGI (converted)) of 389 nM and a GI50 [7] of 676 nM. It also gave a CC50 [7, 8] of 5130 nM and a TGI ([7]; read-out: pTGI (converted)) of 2630 nM.
